In the NIST ThermoML archive (doi:10.1016/j.fluid.2015.03.009):
Values joined by “and” are separate entries in the source; they are usually repeats but may differ in a detail not shown here. Identical values can stand only once. Numbers after ± are expanded uncertainties.

Settings: Liquid, Closed cell (Static) method

Compound | vapor or sublimation pressure (348.15 K) | vapor or sublimation pressure (373.15 K)
CCO [ethanol] | 88.59 ± 0.36 kPa and 88.58 ± 0.36 kPa | 224.37 ± 0.48 kPa and 224.31 ± 0.48 kPa
CCCCCC [hexane] | 123.12 ± 0.38 kPa and 123.03 ± 0.38 kPa and 122.84 ± 0.38 kPa | 247.22 ± 0.55 kPa and 245.99 ± 0.55 kPa and 245.79 ± 0.55 kPa
CO [methanol] | 150.71 ± 0.54 kPa and 150.69 ± 0.54 kPa and 150.67 ± 0.54 kPa | 352.64 ± 0.74 kPa and 352.62 ± 0.74 kPa and 352.7 ± 0.74 kPa
